Test results: patent US4255431A, “Gastric acid secretion inhibiting substituted 2-(2-benzimidazolyl)-pyridines, pharmaceutical preparations containing same, and method for inhibiting gastric acid secretion” (priority 1978, dated 1981)

test system: gastric acid secretion; assay: Inhibition of pentagastrin-stimulated gastric acid secretion in conscious gastric fistula dogs (intraduodenal administration); assay type: in vivo; details: Canis lupus familiaris, dose 0.5 μmol/kg, read-out: Effect, % inhibition (peak inhibitory effect on gastric acid secretion)
Protocol: To determine the gastric acid secretion inhibitory properties, experiments have been performed on conscious dogs provided with gastric fistulas of conventional type and duodenal fistulas, the latter ones used for direct intraduodenal administration of the test compounds. After 18 hours starvation and deprivation of water the dogs were given a subcutaneous infusion of pentagastrin (1-4 nmol/kg, h) lasting for 6-7 hours. Gastric juice was collected in consecutive 30 minutes samples. An aliquot of each sample was titrated with 0.1 N NaOH to pH 7.0 for titrable acid concentration using an automatic titrator and pH-meter (Radiometer, Copenhagen, Denmark). Acid output was calculated as mmol H^+ /60 minutes. The percent inhibition compared to control experiments was calculated for each compound and the peak inhibitory effect is given in Table 2 below. […] In the test prior known compounds were compared with the compounds of the present invention as will be evident from the Table 2 below. The following gastric acid inhibiting effect data were obtained for a number of compounds tested according to the method described.

| Compound | inhibition in vivo at 0.5 µmol/kg [%] |
| --- | --- |
| COc1c(C)cnc(C[S+]([O-])c2nc3cc(C(C)=O)ccc3[nH]2)c1C (stereo not shown) [Example 21] | 60 |
| COC(=O)c1ccc2[nH]c([S+]([O-])C(C)c3ncc(C)cc3C)nc2c1 (stereo not shown) [Example 29] | 40 |
| COC(=O)c1cc2nc([S+]([O-])Cc3ncc(C)c(OC)c3C)[nH]c2cc1C (stereo not shown) [Example 17] | 90 |
| COC(=O)c1ccc2[nH]c([S+]([O-])Cc3ncc(C)c(OC)c3C)nc2c1 (stereo not shown) [Example 20] | 65 |
| COC(=O)c1cc2nc([S+]([O-])Cc3nccc(OC)c3C)[nH]c2cc1C (stereo not shown) [Example 16] | 65 |
| COCCOc1ccnc(C[S+]([O-])c2nc3cc(C)ccc3[nH]2)c1 (stereo not shown) [Example 27] | 30 |
| COc1c(C)cnc(C[S+]([O-])c2nc3cc(C(C)=O)c(C)cc3[nH]2)c1C (stereo not shown) [Example 11] | 70 |
| COc1c(C)cnc(C[S+]([O-])c2nc3cc(C)ccc3[nH]2)c1C (stereo not shown) [Example 24] | 50 |
| COc1ccc2[nH]c([S+]([O-])Cc3ncc(C)c(OC)c3C)nc2c1 (stereo not shown) [Example 23] | 65 |
| CCOC(=O)c1ccc2[nH]c([S+]([O-])Cc3ncc(C)c(OC)c3C)nc2c1 (stereo not shown) [Example 28] | 50 |
| COc1c(C)cnc(C[S+]([O-])c2nc3ccccc3[nH]2)c1C (stereo not shown) [Example 25] | 60 |
| COc1c(C)cnc(C[S+]([O-])c2nc3cc(Cl)ccc3[nH]2)c1C (stereo not shown) [Example 26] | 25 |

same assay, conditions: Canis lupus familiaris, dose 1 μmol/kg, read-out: Effect, % inhibition (peak inhibitory effect on gastric acid secretion)

| Compound | inhibition in vivo at 1 µmol/kg [%] |
| --- | --- |
| CC(=O)c1cc2nc([S+]([O-])Cc3nccc(C)c3C)[nH]c2cc1C (stereo not shown) [Example 4] | 60 |

same assay, conditions: Canis lupus familiaris, dose 2 μmol/kg, read-out: Effect, % inhibition (peak inhibitory effect on gastric acid secretion)

| Compound | inhibition in vivo at 2 µmol/kg [%] |
| --- | --- |
| CC(=O)c1cc2nc([S+]([O-])Cc3ncc(C)cc3C)[nH]c2cc1C (stereo not shown) [Example 7, 2-[2-(3,5-dimethyl)pyridylmethylsulfinyl]-(5-acetyl-6-methyl)benzimidazole] | 100 |
| COC(=O)c1cc2nc([S+]([O-])Cc3cc(C)c(C)cn3)[nH]c2cc1C (stereo not shown) [Example 2] | 60 |
| COc1ccnc(C[S+]([O-])c2nc3cc(C(C)=O)c(C)cc3[nH]2)c1 (stereo not shown) [Example 9] | 95 |
| COc1ccnc(C[S+]([O-])c2nc3c(C)cc(C)cc3[nH]2)c1 (stereo not shown) [Example 10] | 40 |
| COC(=O)c1cc2nc([S+]([O-])Cc3nccc(C)c3C)[nH]c2cc1C (stereo not shown) [Example 5] | 90 |
| COC(=O)c1cc2nc([S+]([O-])Cc3ncc(C)cc3C)[nH]c2cc1C (stereo not shown) [Example 12] | 70 |
| COC(=O)c1ccc2[nH]c([S+]([O-])Cc3ncc(C)cc3C)nc2c1 (stereo not shown) [Example 19] | 60 |
| COC(=O)c1cc2nc([S+]([O-])Cc3cc(OC)ccn3)[nH]c2cc1C (stereo not shown) [Example 14] | 100 |
| CC(=O)c1cc2nc([S+]([O-])Cc3cc(C)c(C)cn3)[nH]c2cc1C (stereo not shown) [Example 1, 2-[2-(4,5-di-methyl)pyridylmethylsulfinyl]-(5-acetyl-6-methyl)benzimidazole] | 90 |

same assay, conditions: Canis lupus familiaris, dose 4 μmol/kg, read-out: Effect, % inhibition (peak inhibitory effect on gastric acid secretion)

| Compound | inhibition in vivo at 4 µmol/kg [%] |
| --- | --- |
| Cc1cnc(C[S+]([O-])c2nc3c(C)cc(C)cc3[nH]2)c(C)c1 (stereo not shown) [Example 6] | 40 |
| Cc1ccc(C[S+]([O-])c2nc3cc(C)ccc3[nH]2)nc1 (stereo not shown) [* 5-CH3, H, H, H, H, CH3, reference compound] | 50 |
| CC(=O)c1cc2nc([S+]([O-])Cc3ncc(C)c(C)c3C)[nH]c2cc1C (stereo not shown) [Example 8] | 100 |
| COC(=O)c1cc2nc([S+]([O-])Cc3ncc(C)c(C)c3C)[nH]c2cc1C (stereo not shown) [Example 13] | 80 |
| COC(=O)c1cc2nc([S+]([O-])Cc3ncccc3Br)[nH]c2cc1C (stereo not shown) [* 5-COOCH3,6-CH3, H, Br, H, H, reference compound] | 0 |
| CCOc1ccnc(C[S+]([O-])c2nc3cc(C(=O)OC)c(C)cc3[nH]2)c1 (stereo not shown) [Example 15] | 75 |
| COC(=O)c1ccc2[nH]c([S+]([O-])Cc3cc(C)c(C)cn3)nc2c1 (stereo not shown) [Example 3] | 100 |
| COC(=O)c1cc2nc([S+]([O-])Cc3ccc(C)cn3)[nH]c2cc1C (stereo not shown) [* 5-COOCH3,6-CH3, H, H, H, CH3, reference compound] | 50 |

same assay, conditions: Canis lupus familiaris, dose 8 μmol/kg, read-out: Effect, % inhibition (peak inhibitory effect on gastric acid secretion)

| Compound | inhibition in vivo at 8 µmol/kg [%] |
| --- | --- |
| CC(=O)c1cc2nc([S+]([O-])Cc3ccc(C)cn3)[nH]c2cc1C (stereo not shown) [* 5-COCH3,6-CH3, H, H, H, CH3, reference compound] | 80 |

same assay, conditions: Canis lupus familiaris, dose 12 μmol/kg, read-out: Effect, % inhibition (peak inhibitory effect on gastric acid secretion)

| Compound | inhibition in vivo at 12 µmol/kg [%] |
| --- | --- |
| Cc1ccc(C[S+]([O-])c2nc3c(C)cc(C)cc3[nH]2)nc1 (stereo not shown) [* 4-CH3,6-CH3, H, H, H, CH3, reference compound] | 50 |

same assay, conditions: Canis lupus familiaris, dose 20 μmol/kg, read-out: Effect, % inhibition (peak inhibitory effect on gastric acid secretion)

| Compound | inhibition in vivo at 20 µmol/kg [%] |
| --- | --- |
| COc1ccc2[nH]c([S+]([O-])Cc3cc(C)ccn3)nc2c1 (stereo not shown) [* 5-OCH3, H, H, H, CH3, H, reference compound] | 10 |
| CC(=O)c1cc2nc([S+]([O-])Cc3cc(C)ccn3)[nH]c2cc1C (stereo not shown) [* 5-COCH3,6-CH3, H, H, CH3, H, reference compound] | 30 |
| COC(=O)c1ccc2[nH]c([S+]([O-])Cc3ccc(C)cn3)nc2c1 (stereo not shown) [* 5-COOCH3, H, H, H, H, CH3, reference compound] | 90 |
| COC(=O)c1ccc2[nH]c([S+]([O-])Cc3ccccn3)nc2c1 (stereo not shown) [* 5-COOCH3, H, H, H, H, H, reference compound] | 50 |
| CCc1ccc(C[S+]([O-])c2nc3cc(C(C)=O)ccc3[nH]2)nc1 (stereo not shown) [* 5-COCH3, H, H, H, H, C2 H5, reference compound] | 40 |
